Experimental data taken from patent US20100168084A1, “Therapeutic compounds and related methods of use” (priority 2008, published 2010).
Like-named read-outs stand apart in the source and are kept apart here.

Molecular target: T1, sirtuin protein (Homo sapiens, UniProt Q96EB6)
T1 sequence (Q96EB6 2-747 limits assumed): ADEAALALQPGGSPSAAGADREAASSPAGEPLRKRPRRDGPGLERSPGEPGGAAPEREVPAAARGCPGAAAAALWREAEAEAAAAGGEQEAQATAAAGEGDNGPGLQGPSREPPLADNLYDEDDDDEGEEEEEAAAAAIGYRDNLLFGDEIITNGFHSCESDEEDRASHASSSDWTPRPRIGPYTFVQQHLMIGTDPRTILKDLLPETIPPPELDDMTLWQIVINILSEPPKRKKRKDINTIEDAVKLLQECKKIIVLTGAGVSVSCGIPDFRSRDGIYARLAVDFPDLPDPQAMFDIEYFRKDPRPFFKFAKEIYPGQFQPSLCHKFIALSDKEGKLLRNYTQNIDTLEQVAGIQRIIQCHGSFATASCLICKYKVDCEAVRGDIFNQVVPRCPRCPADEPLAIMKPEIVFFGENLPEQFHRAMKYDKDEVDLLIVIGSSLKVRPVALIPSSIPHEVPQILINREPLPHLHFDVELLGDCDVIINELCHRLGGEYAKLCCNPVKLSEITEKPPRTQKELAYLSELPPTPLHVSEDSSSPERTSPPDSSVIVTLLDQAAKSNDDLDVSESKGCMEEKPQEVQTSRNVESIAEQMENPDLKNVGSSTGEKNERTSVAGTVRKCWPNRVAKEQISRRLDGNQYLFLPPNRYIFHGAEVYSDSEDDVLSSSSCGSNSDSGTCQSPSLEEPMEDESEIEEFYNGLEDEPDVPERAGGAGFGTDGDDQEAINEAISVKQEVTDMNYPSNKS
Experiment: MS assay (IC50 MS ASSAY / ED50 MS / FOLD ACTIVATION MS)
Type: biochemical
Set-up: scale not given here

[1] = Table 4, class symbols A′, A, B, D, NA, legend not given
[2] = class symbols (A′, A, B, D, NA), no legend given
[3] = MS assay, class symbols, key not given
[4] = Table 4, class symbols A′, A, B, C, NA, legend not given

COc1cc(C(=O)Nc2ccccc2-c2nc3ccccc3[nH]2)ccc1CN1CCNCC1 [Compound 558]
A′: ED50 MS ASSAY | ED50 MS ASSAY (Table 4) | ED50 MS ASSAY (Table 4, class symbols) | ED50 MS ASSAY [1] | ED50 MS ASSAY [2]

COc1ccc(C(=O)Nc2ccc(-c3nc4ccncc4o3)s2)c(OC)c1 [Compound 561]
A′: ED50 MS ASSAY | ED50 MS ASSAY (Table 4) | ED50 MS ASSAY (Table 4, class symbols) | ED50 MS ASSAY [1] | ED50 MS ASSAY [2]

COc1cc(OC)cc(C(=O)Nc2ccc(-c3nc4ccncc4o3)s2)c1 [Compound 562]
A′: ED50 MS ASSAY | ED50 MS ASSAY (Table 4) | ED50 MS ASSAY (Table 4, class symbols) | ED50 MS ASSAY [1] | ED50 MS ASSAY [2]

COc1cc(C(=O)Nc2ccccc2-c2nc3ccccc3[nH]2)ccc1CN1CCCC1 [Compound 587]
A′: ED50 MS ASSAY | ED50 MS ASSAY (Table 4) | ED50 MS ASSAY (Table 4, class symbols) | ED50 MS ASSAY [1] | ED50 MS ASSAY [2]

COc1cc(OC)cc(C(=O)Nc2ccccc2-c2nc3cc(CN4CCNCC4)cnc3s2)c1 [Compound 589]
A′: ED50 MS ASSAY | ED50 MS ASSAY (Table 4) | ED50 MS ASSAY (Table 4, class symbols) | ED50 MS ASSAY [1] | ED50 MS ASSAY [2]

Cc1ccc(C(=O)Nc2ccccc2-c2nc3cc(CN4CCNCC4)cnc3s2)cc1C [Compound 591]
A′: ED50 MS ASSAY | ED50 MS ASSAY (Table 4) | ED50 MS ASSAY (Table 4, class symbols) | ED50 MS ASSAY [1] | ED50 MS ASSAY [2]

N#Cc1cccc(C(=O)Nc2ccccc2-c2nc3cc(CN4CCNCC4)cnc3s2)c1 [Compound 592]
A′: ED50 MS ASSAY | ED50 MS ASSAY (Table 4) | ED50 MS ASSAY (Table 4, class symbols) | ED50 MS ASSAY [1] | ED50 MS ASSAY [2]

CN(C)c1cccc(C(=O)Nc2ccccc2-c2nc3cc(CN4CCNCC4)cnc3s2)c1 [Compound 593]
A′: ED50 MS ASSAY | ED50 MS ASSAY (Table 4) | ED50 MS ASSAY (Table 4, class symbols) | ED50 MS ASSAY [1] | ED50 MS ASSAY [2]

O=C(Nc1ccccc1-c1cn2c(CN3CCOCC3)csc2n1)c1cnc2ccccc2n1 [Compound 617]
A′: ED50 MS ASSAY | ED50 MS ASSAY (Table 4) | ED50 MS ASSAY (Table 4, class symbols) | ED50 MS ASSAY [1] | ED50 MS ASSAY [2]

O=C(Nc1ccccc1-c1cn2c(CN3CCCCC3)csc2n1)c1cnc2ccccc2n1 [Compound 618]
A′: ED50 MS ASSAY | ED50 MS ASSAY (Table 4) | ED50 MS ASSAY (Table 4, class symbols) | ED50 MS ASSAY [1] | ED50 MS ASSAY [2]

O=C(Nc1ccccc1-c1cn2c(CN3CCCC3)csc2n1)c1cnc2ccccc2n1 [Compound 619]
A′: ED50 MS ASSAY | ED50 MS ASSAY (Table 4) | ED50 MS ASSAY (Table 4, class symbols) | ED50 MS ASSAY [1] | ED50 MS ASSAY [2]

COc1cc(C(=O)Nc2ccccc2-c2cn3c(CN4CCCC4)csc3n2)cc(OC)c1OC [Compound 620]
A′: ED50 MS ASSAY | ED50 MS ASSAY (Table 4) | ED50 MS ASSAY (Table 4, class symbols) | ED50 MS ASSAY [1] | ED50 MS ASSAY [2]

O=C(Nc1ncccc1-c1cn2c(CN3CCOCC3)csc2n1)c1cnc2ccccc2n1 [Compound 621]
A′: ED50 MS ASSAY | ED50 MS ASSAY (Table 4) | ED50 MS ASSAY (Table 4, class symbols) | ED50 MS ASSAY [1] | ED50 MS ASSAY [2]

O=C(Nc1ccccc1-c1nc2cc(CN3CCNCC3)cnc2s1)c1cnc2ccccc2n1 [Compound 622]
A′: ED50 MS ASSAY | ED50 MS ASSAY (Table 4) | ED50 MS ASSAY (Table 4, class symbols) | ED50 MS ASSAY [1] | ED50 MS ASSAY [2]

O=C(Nc1ccccc1-c1cn2c(CN3CCNCC3)csc2n1)c1cc2ccccc2o1 [Compound 624]
A′: ED50 MS ASSAY | ED50 MS ASSAY (Table 4) | ED50 MS ASSAY (Table 4, class symbols) | ED50 MS ASSAY [1] | ED50 MS ASSAY [2]

O=C(Nc1ccccc1-c1cn2c(CN3CCNCC3)csc2n1)c1cc(-c2ccccc2)ncn1 [Compound 625]
A′: ED50 MS ASSAY | ED50 MS ASSAY (Table 4) | ED50 MS ASSAY (Table 4, class symbols) | ED50 MS ASSAY [1] | ED50 MS ASSAY [2]

O=C(Nc1ccccc1-c1cn2c(CN3CCN(Cc4ccccc4)CC3=O)csc2n1)c1cnc2ccccc2n1 [Compound 628]
A′: ED50 MS ASSAY | ED50 MS ASSAY (Table 4) | ED50 MS ASSAY (Table 4, class symbols) | ED50 MS ASSAY [1] | ED50 MS ASSAY [2]

COc1cc(C(=O)Nc2ccccc2-c2nc3ncccc3o2)ccc1CN1CCOCC1 [Compound 631]
A′: ED50 MS ASSAY | ED50 MS ASSAY (Table 4) | ED50 MS ASSAY (Table 4, class symbols) | ED50 MS ASSAY [1] | ED50 MS ASSAY [2]

O=C(Nc1ccccc1-c1cn2c(CN3CCNCC3)csc2n1)c1cnc2ccccc2c1 [Compound 645]
A′: ED50 MS ASSAY | ED50 MS ASSAY (Table 4) | ED50 MS ASSAY (Table 4, class symbols) | ED50 MS ASSAY [1] | ED50 MS ASSAY [2]

CN(C)CCOCc1csc2nc(-c3ccccc3NC(=O)c3cnc4ccccc4n3)cn12 [Compound 647]
A′: ED50 MS ASSAY | ED50 MS ASSAY (Table 4) | ED50 MS ASSAY (Table 4, class symbols) | ED50 MS ASSAY [1] | ED50 MS ASSAY [2]

O=C(Nc1ccccc1-c1cn2c(CO)csc2n1)c1cnc2ccccc2n1 [Compound 648]
A′: ED50 MS ASSAY | ED50 MS ASSAY (Table 4) | ED50 MS ASSAY (Table 4, class symbols) | ED50 MS ASSAY [1] | ED50 MS ASSAY [2]

CN1CCN(C(=O)Cc2csc3nc(-c4ccccc4NC(=O)c4cnc5ccccc5n4)cn23)CC1 [Compound 649]
A′: ED50 MS ASSAY | ED50 MS ASSAY (Table 4) | ED50 MS ASSAY (Table 4, class symbols) | ED50 MS ASSAY [1] | ED50 MS ASSAY [2]

CC(=O)N1CCN(Cc2csc3nc(-c4ccccc4NC(=O)c4cnc5ccccc5n4)cn23)CC1 [Compound 651]
A′: ED50 MS ASSAY | ED50 MS ASSAY (Table 4) | ED50 MS ASSAY (Table 4, class symbols) | ED50 MS ASSAY [1] | ED50 MS ASSAY [2]

COc1cc(NC(=S)Nc2cc(-c3nc4ncccc4o3)ccn2)cc(OC)c1 [Compound 661]
A′: ED50 MS ASSAY | ED50 MS ASSAY (Table 4) | ED50 MS ASSAY (Table 4, class symbols) | ED50 MS ASSAY [1] | ED50 MS ASSAY [2]

O=C(Nc1ccccc1-c1cn2c(CNCC(O)CO)csc2n1)c1cnc2ccccc2n1 (stereo not drawn) [Compound 676]
A′: ED50 MS ASSAY | ED50 MS ASSAY (Table 4) | ED50 MS ASSAY (Table 4, class symbols) | ED50 MS ASSAY [1] | ED50 MS ASSAY [2]

O=C(Nc1ccccc1-c1cn2c(CCN3CCNCC3)csc2n1)c1cnc2ccccc2n1 [Compound 680]
A′: ED50 MS ASSAY | ED50 MS ASSAY (Table 4) | ED50 MS ASSAY (Table 4, class symbols) | ED50 MS ASSAY [1] | ED50 MS ASSAY [2]

N#Cc1cccc(C(=O)Nc2ccccc2-c2nc3cc(CN4CCOCC4)cnc3s2)c1 [Compound 685]
A′: ED50 MS ASSAY | ED50 MS ASSAY [3] | ED50 MS ASSAY (Table 4) | ED50 MS ASSAY [4]

O=C(Nc1ccccc1-c1cn2c(CN3CCNCC3)csc2n1)c1cc(F)cc(F)c1 [Compound 695]
A′: ED50 MS ASSAY | ED50 MS ASSAY [3] | ED50 MS ASSAY (TABLE 4) | ED50 MS ASSAY (Table 4) | ED50 MS ASSAY [4]

O=C(Nc1ccccc1-c1cn2c(CN3CCNCC3)csc2n1)c1cccc(OC(F)(F)F)c1 [Compound 698]
A′: ED50 MS ASSAY | ED50 MS ASSAY [3] | ED50 MS ASSAY (TABLE 4) | ED50 MS ASSAY (Table 4) | ED50 MS ASSAY [4]
